The assay concerns the target L-type channel CaV1.2 (UniProt P15381).

Structures are written as SMILES.

Sequence of L-type channel CaV1.2 (P15381 whole entry, looked up): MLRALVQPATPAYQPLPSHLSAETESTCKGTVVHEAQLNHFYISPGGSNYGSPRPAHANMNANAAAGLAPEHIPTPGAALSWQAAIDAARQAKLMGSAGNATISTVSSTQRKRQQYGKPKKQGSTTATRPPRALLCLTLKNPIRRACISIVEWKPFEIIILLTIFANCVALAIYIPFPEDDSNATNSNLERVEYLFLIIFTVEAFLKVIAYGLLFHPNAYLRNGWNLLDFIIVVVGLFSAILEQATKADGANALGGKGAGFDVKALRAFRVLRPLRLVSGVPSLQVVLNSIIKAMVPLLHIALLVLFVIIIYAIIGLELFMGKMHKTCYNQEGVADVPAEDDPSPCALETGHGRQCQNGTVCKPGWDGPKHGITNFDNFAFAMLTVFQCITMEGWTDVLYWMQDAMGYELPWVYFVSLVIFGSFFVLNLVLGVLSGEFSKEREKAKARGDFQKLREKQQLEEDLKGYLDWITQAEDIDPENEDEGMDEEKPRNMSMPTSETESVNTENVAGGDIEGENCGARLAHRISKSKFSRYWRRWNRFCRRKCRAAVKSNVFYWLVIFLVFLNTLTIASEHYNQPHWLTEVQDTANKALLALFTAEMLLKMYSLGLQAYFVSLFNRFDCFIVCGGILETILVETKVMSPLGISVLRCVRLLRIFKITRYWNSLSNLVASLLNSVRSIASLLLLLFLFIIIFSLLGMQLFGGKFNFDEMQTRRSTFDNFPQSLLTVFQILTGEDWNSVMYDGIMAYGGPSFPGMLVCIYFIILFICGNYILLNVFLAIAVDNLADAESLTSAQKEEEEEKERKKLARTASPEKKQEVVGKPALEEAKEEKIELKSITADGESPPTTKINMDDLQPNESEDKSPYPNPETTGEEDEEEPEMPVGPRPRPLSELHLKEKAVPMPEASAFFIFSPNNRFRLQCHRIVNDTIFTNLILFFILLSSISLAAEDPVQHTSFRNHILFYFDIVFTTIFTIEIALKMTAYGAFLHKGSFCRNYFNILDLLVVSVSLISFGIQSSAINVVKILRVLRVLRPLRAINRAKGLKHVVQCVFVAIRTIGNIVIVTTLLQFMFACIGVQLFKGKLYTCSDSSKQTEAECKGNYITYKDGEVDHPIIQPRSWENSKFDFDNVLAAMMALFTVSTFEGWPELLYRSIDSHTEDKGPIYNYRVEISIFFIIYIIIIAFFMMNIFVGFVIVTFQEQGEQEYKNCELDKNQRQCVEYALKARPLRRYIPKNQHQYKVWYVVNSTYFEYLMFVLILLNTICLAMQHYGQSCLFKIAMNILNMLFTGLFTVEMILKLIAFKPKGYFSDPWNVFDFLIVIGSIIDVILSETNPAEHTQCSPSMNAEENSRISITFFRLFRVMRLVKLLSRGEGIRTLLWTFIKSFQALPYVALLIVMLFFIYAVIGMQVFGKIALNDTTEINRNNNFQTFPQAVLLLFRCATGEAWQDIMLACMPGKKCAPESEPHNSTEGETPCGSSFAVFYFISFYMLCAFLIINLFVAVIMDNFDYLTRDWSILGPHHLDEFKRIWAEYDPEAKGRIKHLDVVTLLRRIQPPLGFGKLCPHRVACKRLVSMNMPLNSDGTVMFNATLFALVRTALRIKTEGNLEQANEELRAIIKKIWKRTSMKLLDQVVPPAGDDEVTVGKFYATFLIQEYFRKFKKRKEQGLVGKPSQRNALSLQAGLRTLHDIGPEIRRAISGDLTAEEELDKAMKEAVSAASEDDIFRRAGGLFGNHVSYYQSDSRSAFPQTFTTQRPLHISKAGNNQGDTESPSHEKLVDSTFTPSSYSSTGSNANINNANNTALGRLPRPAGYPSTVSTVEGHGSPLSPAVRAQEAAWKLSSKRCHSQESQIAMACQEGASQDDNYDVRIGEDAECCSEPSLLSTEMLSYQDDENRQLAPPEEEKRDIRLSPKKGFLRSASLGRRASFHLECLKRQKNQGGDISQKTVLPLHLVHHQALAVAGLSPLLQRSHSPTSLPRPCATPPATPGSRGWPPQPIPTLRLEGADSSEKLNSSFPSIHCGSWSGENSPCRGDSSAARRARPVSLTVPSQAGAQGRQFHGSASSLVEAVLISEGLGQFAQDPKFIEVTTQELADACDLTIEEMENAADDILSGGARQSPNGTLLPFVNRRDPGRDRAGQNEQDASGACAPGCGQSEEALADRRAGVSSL

For `COc1ccc2cc1Oc1ccc(cc1)C[C@H]1c3cc(c(OC)cc3CCN1C)Oc1c(OC)c(OC)cc3c1[C@H](C2)N(C)CC3` [TETN, tetrandrine, reference compound], the “L-Activity IC50” value was determined as 46.80 ± 10.84 µM.

For the origin of these results see patent US20190275027A1 (priority 2018, published 2019).
